In the case of `Cc1nn(-c2ccccn2)c2nc3cc(F)c(F)cc3c(Cl)c12`, the melting point is reported as 175 to 176 °C. For `NC(Cc1ccccc1)C(=O)Nc1nc2ccccc2c(=O)o1` (configuration not stated), the melting point was 215 to 216 °C. `O=C(Nc1ccccc1N1CCc2ccccc21)C1CCC1` gave a melting point of 81 to 83.5 °C. In the case of `Cn1c(CCN2CCC(c3ccccc3)CC2)nc2cc(Br)c3ccccc3c21`, the melting point is reported as 182 to 184 °C. In the case of `CC(C)c1c(NC(=O)OCc2ccccc2)nc(-c2ccc(F)cc2)n1CCC1CC(O)CC(=O)O1` (configuration not stated), the melting point is reported as 86 to 90 °C. `CN1C(=O)C2(CCN(CCCC(O)c3ccc(F)cc3)CC2)c2ccccc21` (configuration not stated) gave a melting point of 126 to 128 °C. Compound `ON=C(c1ccccc1)c1ccc(OCCCOc2ccc(C(=NO)c3ccccc3)cc2)cc1` has a melting point of 205 to 208 °C. `CCOC(=O)c1ncn2c1[C@@H]1CCCN1C(=O)c1cc([N+](=O)[O-])ccc1-2` showed a melting point of 191 to 193 °C. With `CN(Cc1nc(-c2cc(C(C)(C)C)c(O)c(C(C)(C)C)c2)cn1COCC[Si](C)(C)C)c1ccc([N+](=O)[O-])cc1` the melting point was 149 to 151 °C. `CN(C)c1cccc(OC(=O)NC2C(=O)N(CC34CC5CC(CC(C5)C3)C4)c3ccccc3N(c3ccccc3)C2=O)c1` (configuration not stated) showed a melting point of 130 to 132 °C. In the case of `COc1cc(C(C)=O)ccc1OCCCN1CCN(c2n[nH]c3cc(F)ccc23)CC1`, the melting point is reported as 135 to 137 °C. For `Cc1cn(C2C=CC(CO)O2)c(=O)[nH]c1=S` (configuration not stated), the melting point was 117 to 118 °C. Compound `O=C(O)C1Cc2cc3c(-c4ccc(F)cc4)noc3c(Cl)c2O1` (configuration not stated) has a melting point of 225 to 226 °C. For `CCOC(=O)NC(=O)n1c(-c2cc(OC)c(O)c(OC)c2)nc(-c2ccc(N(CC)CC)cc2)c1-c1ccc(N(CC)CC)cc1`, the melting point was 60 °C. Compound `CCCCN(C(=O)C(=O)O)c1cccc(NC(=O)C(=O)O)c1` has a melting point of 232 °C. With `CNS(=O)(=O)Cc1ccc2[nH]cc(CCN=CNc3cccnc3)c2c1` the melting point was 70 to 71 °C. With `Cc1cc2c(c(C)c1NC(=O)NC(C)(C)C)C(c1ccc(C(C)C)cc1)CO2` (single isomer, unassigned; (+)) the melting point was 205 to 206 °C. Work on `CC1=C(C(=O)Nc2ccccc2)OCCO1` yielded a melting point of 85 to 87 °C. For `CN(C)c1ccc(C=NCCc2cccs2)cc1`, the melting point was 76.8 to 77 °C. `CSCCCOc1nc(-c2ccc(F)cc2C)c2ccc(=O)n(-c3c(F)cccc3F)c2n1` showed a melting point of 127 to 128 °C. For `NS(=O)(=O)C1C=CC=CC1(CCNC(=O)C=Cc1cccs1)OCc1ccccc1` (configuration not stated), the melting point was 177 °C. For `CCCCCc1nc2cnc3ccccc3c2[nH]1`, the melting point was 142 to 143 °C. `C[C@@H](Nc1ncnc2[nH]c(-c3ccc(CNC(=O)CCN4CCCCC4)cc3)cc12)c1ccccc1` gave a melting point of 140 °C. `Cc1ccnc2c1C(=O)CC(c1ccco1)C2` (configuration not stated) gave a melting point of 70 to 71 °C. `Cc1c(N=C2NCCO2)cccc1NS(C)(=O)=O` showed a melting point of 124 to 140 °C. With `NS(=O)(=O)c1ccc(NCC(=O)NC2CCCCC2)cc1` the melting point was 223 to 225 °C. In the case of `CCC(=CC(CNC(=O)c1cccnc1SC)=NO)C(C)[N+](=O)[O-]` (configuration not stated), the melting point is reported as 161 to 163 °C. With `CCOC(=O)c1cc2cc(C=O)cc(C(C)CC)c2oc1=O` (configuration not stated) the melting point was 89 to 90 °C. Work on `CC(C)NC(=NC(=O)OC(C)(C)C)N=C1NC(=O)C(=O)N1c1ccc(Cl)c(Cl)c1` yielded a melting point of 227 °C. `CC(c1cc(F)cc(F)c1)n1ncc(-c2ccc(S(N)(=O)=O)cc2)c(-c2ccc(F)cc2)c1=O` (configuration not stated) gave a melting point of 139 to 141 °C. `O=C(Nc1ccccc1C(=NC1CCN(Cc2ccccc2)CC1)c1ccccc1)C(Cl)(Cl)Cl` gave a melting point of 151 to 152 °C. For `O=C(CCCCOCc1ccccc1)c1ccc([N+](=O)[O-])cc1`, the melting point was 75 °C. With `COc1ccc(C(C#N)Nc2ccc(S(C)(=O)=O)cc2)cc1` (configuration not stated) the melting point was 131 to 132 °C. With `Cc1cccc(N(C)c2n[nH]c3ncnc(Nc4cccc(Cl)c4)c23)n1` the melting point was 231 to 233 °C. `CCOC(=O)/C(C)=C/c1ccc(Br)cc1` gave a melting point of 82 °C. With `CC1(N)CCN(c2c(F)c(F)c3c(=O)c(C(=O)O)cn(C4CC4)c3c2F)C1` (configuration not stated) the melting point was 280 to 282 °C. Compound `Cc1ccccc1-c1c(CS)n(C)c(=O)c2ccccc12` has a melting point of 184 to 186 °C.
